From PubChem BioAssay (NCI)
Where “and” joins values, the source holds several entries; their conditions need not be identical. Equal values may be shown once.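 All cell lines were grown in 96-well plates and treated with compound for 48 hours. GI50 marks 50% less growth. TGI: total growth inhibition.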

Key:
Experiment in all cases: NCI tumour cell line growth inhibition, 48 h
[1] = system: 786-0 renal
[2] = system: ACHN renal
[3] = system: COLO 205 colon
[4] = system: MDA-MB-435
[5] = system: NCI/ADR-RES ovarian
[6] = system: SR leukemia
[7] = system: HT29 colon
[8] = system: RPMI-8226 leukemia
[9] = system: DLD-1 colon
[10] = system: M19-MEL melanoma

Row | SMILES | TGI [1] | TGI [2] | TGI [3] | TGI [4] | TGI [5] | TGI [6] | TGI [7] | TGI [8] | GI50 [1] | GI50 [2] | GI50 [3] | GI50 [4] | GI50 [5] | GI50 [6] | GI50 [7] | GI50 [8] | TGI [9] | TGI [10]
1 | O=C(O)C1CCCN1 (stereo not drawn) | > 100 µM | > 100 µM | > 100 µM | > 100 µM | > 100 µM | > 100 µM | > 100 µM | > 100 µM |  |  |  |  |  |  |  |  |  | 
2 | C=CC(=O)N1CCN([C@@H](CC2CC2)c2ccc([C@H](C)Nc3ncc4c(n3)N(CC)C(=O)OC4)cc2)CC1 | 25.7 µM | 27.9 µM | 36 µM | 23.6 µM | > 100 µM | 22.7 µM | 50.7 µM | 24.9 µM | 11.2 µM | 14.5 µM | 16.9 µM | 11.1 µM | 21.5 µM | 4.05 µM | 17.5 µM | 4.95 µM |  | 
3 | CCOc1ccc2nc3cc(N)ccc3c(N)c2c1 | 10.8 µM and 13.1 µM | 48.3 µM and 16.6 µM | 13.4 µM and 4.69 µM | 24.3 µM and 22.4 µM | > 100 µM | 8.36 µM and 8.48 µM | 19.5 µM and 17.9 µM | 43.5 µM and 38.4 µM | 2.12 µM and 2.37 µM | 7.01 µM and 3.93 µM | 3 µM and 1.25 µM | 10.6 µM and 7.74 µM | 9.69 µM and 24.6 µM | 2.61 µM and 2.8 µM | 5.77 µM and 5.22 µM | 15.4 µM and 13.9 µM |  | 
4 | O=C(O)c1ccccc1NS(=O)(=O)c1ccc(Cl)cc1 | > 100 µM | > 100 µM | > 100 µM |  |  |  | > 100 µM | > 100 µM |  |  |  |  |  |  |  |  | > 100 µM | > 100 µM
5 | CC(C)N1CCOC(c2ccc(O)c(O)c2)C1 (stereo not drawn) | > 100 µM | > 100 µM | > 100 µM |  |  |  | > 100 µM | > 100 µM |  |  |  |  |  |  |  |  | > 100 µM | > 100 µM
6 | CCN(CC)CC(C(=O)Nc1c(C)cccc1C)/C(C)=N\NC(=S)NN (stereo not drawn) | > 100 µM | > 100 µM | > 100 µM |  |  |  | > 100 µM | > 100 µM |  |  |  |  |  |  |  |  | > 100 µM | > 100 µM
7 | O=C(O)c1c2c(c(O)c3c1CN(C1CCCCC1)CO3)OCN(C1CCCCC1)C2 | > 100 µM | > 100 µM | > 100 µM | > 100 µM | > 100 µM | 73 µM | > 100 µM | > 100 µM |  |  |  |  |  |  |  |  |  | 
8 | CC(=O)Nc1ccc(CC[C@H]2CCC/C=C/[C@@H]3C[C@H](O)C[C@H]3[C@H](O)/C=C/C(=O)O2)cc1 | 0.0838 µM | > 47.2 µM | 0.283 µM | > 100 µM | > 100 µM |  | 0.951 µM | 0.591 µM | 0.0252 µM | 0.375 µM | 0.139 µM | 0.151 µM | 0.819 µM | 0.215 µM | 0.119 µM | 0.222 µM |  | 
9 | Clc1ccc2c(NCCCCNc3nc(N4CCOCC4)nc4ccccc34)ccnc2c1 | 5.94 µM | 3.6 µM | 4.49 µM | 6.18 µM | 20.6 µM | 0.853 µM | 7.14 µM | 7.21 µM | 2.28 µM | 1.9 µM | 1.87 µM | 2.4 µM | 4.88 µM | 0.295 µM | 2.61 µM | 2.8 µM |  | 
10 | CC(C)(C)CNCCO | > 100 µM | > 100 µM | > 100 µM | > 100 µM | > 100 µM | > 100 µM | > 100 µM | > 100 µM |  |  |  |  |  |  |  |  |  | 
